Our source for the Ki values is patent US7528138B2, “Pyrazolo[1,5-a]pyrimidines useful as inhibitors of protein kinases” (Vertex Pharmaceuticals Incorporated, priority 2004, dated 2009).

The target of one assay is T1, Itk (Homo sapiens, UniProt Q08881).
T1 sequence (Q08881 1-620): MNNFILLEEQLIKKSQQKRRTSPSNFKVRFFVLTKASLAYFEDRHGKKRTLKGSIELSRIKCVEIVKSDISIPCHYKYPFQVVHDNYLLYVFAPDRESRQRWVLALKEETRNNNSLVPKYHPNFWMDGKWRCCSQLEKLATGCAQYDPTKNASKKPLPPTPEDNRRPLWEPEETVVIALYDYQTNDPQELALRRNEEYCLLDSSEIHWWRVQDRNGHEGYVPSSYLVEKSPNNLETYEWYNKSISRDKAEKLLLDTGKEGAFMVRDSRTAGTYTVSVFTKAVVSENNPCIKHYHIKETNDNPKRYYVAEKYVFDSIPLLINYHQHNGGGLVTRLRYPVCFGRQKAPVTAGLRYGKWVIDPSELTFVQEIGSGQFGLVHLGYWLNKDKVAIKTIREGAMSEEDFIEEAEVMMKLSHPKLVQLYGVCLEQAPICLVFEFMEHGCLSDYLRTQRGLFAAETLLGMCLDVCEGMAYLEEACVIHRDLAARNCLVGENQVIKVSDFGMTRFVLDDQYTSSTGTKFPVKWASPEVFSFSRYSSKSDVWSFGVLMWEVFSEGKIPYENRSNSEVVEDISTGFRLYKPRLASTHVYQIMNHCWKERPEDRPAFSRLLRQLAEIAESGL
Description: ITK Inhibition Assay (Radiometric), radioactive-phosphate incorporation. The class given is biochemical. Particulars: enzyme inhibition data (Ki), Table 11; radiometric or UV assay not stated. The procedure, abridged: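 Radiometric 33P incorporation into SAM68 peptide (D332-443) with filter capture and scintillation counting; 10 min pre-incubation then 10 min reaction at 25° C. IC50 format: 30 nM Itk, 15 μM ATP, 2 μM peptide, HEPES pH 7.5. Ki(app) format: 50 nM Itk, 7.5 μM ATP, 3 μM peptide, MOPS pH 7.0.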

The next assay addresses c-Met (Homo sapiens, UniProt P08581). In words: c-Met Inhibition Assay, coupled enzyme system. The following applies: enzyme inhibition data (Ki), Table 11. It is filed as biochemical. The procedure, abridged: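 Pyruvate kinase/lactate dehydrogenase-coupled NADH assay in HEPES pH 7.5 with 80 nM c-Met, 200 μM ATP and 10 μM polyGluTyr at 30° C. Compound (0.006–12.5 μM final, 12-point) preincubated 10 min before ATP start; rates over 10 min gave Ki.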

Sequence of c-Met (P08581 25-1390): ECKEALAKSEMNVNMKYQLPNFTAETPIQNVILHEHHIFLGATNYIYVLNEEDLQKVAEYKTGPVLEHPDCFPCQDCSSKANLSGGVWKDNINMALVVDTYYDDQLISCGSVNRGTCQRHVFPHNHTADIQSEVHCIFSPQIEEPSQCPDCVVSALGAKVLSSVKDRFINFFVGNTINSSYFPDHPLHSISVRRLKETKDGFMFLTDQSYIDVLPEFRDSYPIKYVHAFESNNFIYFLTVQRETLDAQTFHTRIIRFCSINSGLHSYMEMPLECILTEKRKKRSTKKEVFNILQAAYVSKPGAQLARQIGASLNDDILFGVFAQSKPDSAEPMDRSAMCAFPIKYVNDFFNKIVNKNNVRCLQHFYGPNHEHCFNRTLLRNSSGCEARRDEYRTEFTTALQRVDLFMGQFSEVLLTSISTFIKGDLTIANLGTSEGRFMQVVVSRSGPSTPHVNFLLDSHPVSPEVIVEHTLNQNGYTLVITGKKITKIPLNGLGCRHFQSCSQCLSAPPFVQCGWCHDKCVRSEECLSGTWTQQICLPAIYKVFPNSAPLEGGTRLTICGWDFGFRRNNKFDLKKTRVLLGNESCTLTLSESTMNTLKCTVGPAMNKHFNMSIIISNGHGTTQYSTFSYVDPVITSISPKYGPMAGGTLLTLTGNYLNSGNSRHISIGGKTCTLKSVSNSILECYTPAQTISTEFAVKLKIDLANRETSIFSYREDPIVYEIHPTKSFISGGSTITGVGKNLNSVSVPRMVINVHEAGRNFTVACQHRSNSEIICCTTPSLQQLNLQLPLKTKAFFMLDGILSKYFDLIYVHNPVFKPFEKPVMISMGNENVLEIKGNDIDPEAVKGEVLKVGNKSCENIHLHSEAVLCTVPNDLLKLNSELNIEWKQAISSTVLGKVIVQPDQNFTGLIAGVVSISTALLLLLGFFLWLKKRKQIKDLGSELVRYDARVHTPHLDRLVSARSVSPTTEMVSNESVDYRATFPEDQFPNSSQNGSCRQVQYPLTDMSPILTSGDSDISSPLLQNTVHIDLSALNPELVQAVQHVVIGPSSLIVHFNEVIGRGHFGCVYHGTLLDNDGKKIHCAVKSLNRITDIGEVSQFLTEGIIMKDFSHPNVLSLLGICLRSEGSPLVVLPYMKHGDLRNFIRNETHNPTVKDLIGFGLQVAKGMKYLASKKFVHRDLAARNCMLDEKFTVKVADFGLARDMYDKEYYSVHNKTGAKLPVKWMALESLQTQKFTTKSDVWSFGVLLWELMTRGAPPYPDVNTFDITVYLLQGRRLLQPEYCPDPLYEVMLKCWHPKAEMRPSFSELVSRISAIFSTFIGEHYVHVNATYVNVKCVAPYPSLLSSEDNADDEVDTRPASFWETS

In general, Ki refers to a measure of affinity in units of concentration, obtained from inhibition or displacement. Regarding `Nc1nn2cc(-c3ccc(CN4CCC(N)CC4)cc3)cnc2c1-c1ccccn1` [Compound V-234], the Ki on Itk and on c-Met was below 500 nM throughout.
For the compound `Cc1ccnc(-c2c(N)nn3cc(-c4ccncc4)cnc23)c1` [Compound V-133], the Ki is 500 to 5000 nM at Itk and below 500 nM at c-Met.
In the case of `CNCCCN(C)C(=O)c1cccc(-c2cnc3c(-c4ccccn4)c(N)nn3c2)c1` [Compound V-190], the inhibition constant (Ki) at Itk and at c-Met was below 500 nM throughout.
With `CNc1cc(-c2c(N)nn3cc(-c4ccncc4)cnc23)ncn1` [Compound V-181], the Ki on Itk and on c-Met was below 500 nM throughout.
For the compound `Nc1nn2cc(C#CCO)cnc2c1-c1ccccn1` [Compound V-238], the Ki is 500 to 5000 nM at Itk and below 500 nM on c-Met.
